Results reported in ChEMBL document CHEMBL1201862, “PubChem BioAssay data set” (2004).
Several values for one entry are separate records, joined by “and”; a condition that tells them apart may be missing. Identical values can stand only once.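 Each compound was tested at five concentrations against cells in 96-well plates for 48 hours. GI50: concentration for 50% inhibition of growth.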 Activity calls are given as the source filed them. Cut-off read from the data, not from the text of the source: active = GI50 up to about 1.1 µM and inactive = higher.

How the values were obtained:
Assay in all cases: growth of human tumour cells (NCI), 48 h
ACHN = system: ACHN
RPMI-8226 = system: RPMI-8226
SF-268 = system: SF-268
786-0 = system: 786-0
NCI-H460 = system: NCI-H460
SK-MEL-28 = system: SK-MEL-28
HCT-15 = system: HCT-15
NCI-H522 = system: NCI-H522
NCI/ADR-RES = system: NCI/ADR-RES
SK-MEL-2 = system: SK-MEL-2
OVCAR-3 = system: OVCAR-3
U-251 = system: U-251
HCC 2998 = system: HCC 2998
SNB-75 = system: SNB-75
A498 = system: A498
MCF7 = system: MCF7
DU-145 = system: DU-145
MOLT-4 = system: MOLT-4
UACC-62 = system: UACC-62
OVCAR-5 = system: OVCAR-5
IGROV-1 = system: IGROV-1
LOX IMVI = system: LOX IMVI
A549 = system: A549
HL-60 = system: HL-60
HOP-92 = system: HOP-92
OVCAR-8 = system: OVCAR-8
MDA-MB-231 = system: MDA-MB-231
UACC-257 = system: UACC-257
UO-31 = system: UO-31
SK-MEL-5 = system: SK-MEL-5
HCT-116 = system: HCT-116
CAKI-1 = system: CAKI-1
MDA-MB-435 = system: MDA-MB-435
BT-549 = system: BT-549
HT-29 = system: HT-29
Malme-3M = system: Malme-3M
SR = system: SR
RXF 393 = system: RXF 393
PC-3 = system: PC-3
OVCAR-4 = system: OVCAR-4
M14 = system: M14
SNB-19 = system: SNB-19
EKVX = system: EKVX
K562 = system: K562
HOP-62 = system: HOP-62
NCI-H226 = system: NCI-H226
SN12C = system: SN12C
KM12 = system: KM12
COLO 205 = system: COLO 205
MDA-N = system: MDA-N
CCRF-CEM = system: CCRF-CEM
SF-295 = system: SF-295
TK-10 = system: TK-10
SF-539 = system: SF-539
NCI-H23 = system: NCI-H23
SK-OV-3 = system: SK-OV-3
T47D = system: T47D
SW-620 = system: SW-620
Hs-578T = system: Hs-578T

SMILES: CCOP(=O)(OCC)C(Nc1cccc([N+](=O)[O-])c1)c1ccccc1 (configuration not stated)
- GI50 (ACHN): > 100 µM (inactive)
- GI50 (RPMI-8226): 76.7 µM (inactive)
- GI50 (SF-268): > 100 µM (inactive)
- GI50 (786-0): > 100 µM (inactive)
- GI50 (NCI-H460): 80 µM (inactive)
- GI50 (SK-MEL-28): > 100 µM (inactive)
- GI50 (HCT-15): 71.6 µM
- GI50 (NCI-H522): 90.2 µM (inactive)
- GI50 (NCI/ADR-RES): 97.1 µM (inactive)
- GI50 (SK-MEL-2): 82.4 µM (inactive)
- GI50 (OVCAR-3): > 100 µM (inactive)
- GI50 (U-251): > 100 µM (inactive)
- GI50 (HCC 2998): > 100 µM (inactive)
- GI50 (SNB-75): 71.9 µM (inactive)
- GI50 (A498): > 100 µM (inactive)
- GI50 (MCF7): > 100 µM (inactive)
- GI50 (DU-145): > 100 µM (inactive)
- GI50 (MOLT-4): 39.4 µM (inactive)
- GI50 (UACC-62): 58.2 µM (inactive)
- GI50 (OVCAR-5): > 100 µM (inactive)
- GI50 (IGROV-1): 0.108 µM (active)
- GI50 (LOX IMVI): 73.3 µM (inactive)
- GI50 (A549): 57.1 µM (inactive)
- GI50 (HL-60): 39.9 µM (inactive)
- GI50 (HOP-92): 62.4 µM (inactive)
- GI50 (OVCAR-8): > 10 µM (inactive)
- GI50 (MDA-MB-231): 58.9 µM (inactive)
- GI50 (UACC-257): 72.1 µM (inactive)
- GI50 (UO-31): 48.8 µM (inactive)
- GI50 (SK-MEL-5): 64.3 µM (inactive)
- GI50 (HCT-116): 65 µM (inactive)
- GI50 (CAKI-1): > 100 µM (inactive)
- GI50 (MDA-MB-435): > 100 µM (inactive)
- GI50 (BT-549): > 100 µM (inactive)
- GI50 (HT-29): 75 µM (inactive)
- GI50 (Malme-3M): 40.1 µM (inactive)
- GI50 (SR): > 100 µM (inactive)
- GI50 (RXF 393): 88.3 µM (inactive)
- GI50 (PC-3): 38.6 µM (inactive)
- GI50 (OVCAR-4): > 100 µM (inactive)
- GI50 (M14): > 100 µM (inactive)
- GI50 (SNB-19): > 100 µM (inactive)
- GI50 (EKVX): 62.2 µM (inactive)
- GI50 (K562): 38.2 µM (inactive)
- GI50 (HOP-62): > 100 µM (inactive)
- GI50 (NCI-H226): > 100 µM (inactive)
- GI50 (SN12C): > 100 µM (inactive)
- GI50 (KM12): > 100 µM (inactive)
- GI50 (COLO 205): 34.6 µM (inactive)
- GI50 (MDA-N): > 100 µM (inactive)
- GI50 (CCRF-CEM): 68.1 µM (inactive)
- GI50 (SF-295): > 100 µM (inactive)
- GI50 (TK-10): > 100 µM (inactive)
- GI50 (SF-539): > 100 µM (inactive)
- GI50 (NCI-H23): > 100 µM (inactive)
- GI50 (SK-OV-3): > 100 µM (inactive)
- GI50 (T47D): 18.8 µM (inactive)

SMILES: CC(=O)NC1(C(=O)N[C@@H](Cc2ccccc2)C(=O)NC2CCCCC2)Cc2ccc3ccccc3c2-c2c(ccc3ccccc23)C1
- GI50 (ACHN): 4.06 µM (inactive) and 7.73 µM (inactive)
- GI50 (786-0): 8.95 µM (inactive) and 8.73 µM (inactive)
- GI50 (NCI-H460): 6.17 µM (inactive) and 3.41 µM (inactive)
- GI50 (HCT-15): 6.61 µM and 3.9 µM
- GI50 (NCI/ADR-RES): 3.94 µM (inactive) and 6.82 µM (inactive)
- GI50 (SK-MEL-2): 15.3 µM (inactive) and 7.89 µM (inactive)
- GI50 (U-251): 9.53 µM (inactive) and 5.89 µM (inactive)
- GI50 (SW-620): 17.8 µM (inactive) and 25.3 µM (inactive)
- GI50 (HCC 2998): 6.73 µM (inactive) and 4.54 µM (inactive)
- GI50 (A498): 14.6 µM (inactive) and 21.2 µM (inactive)
- GI50 (MCF7): 3.03 µM (inactive) and 5.48 µM (inactive)
- GI50 (LOX IMVI): 53.2 µM (inactive) and 50.5 µM (inactive)
- GI50 (HL-60): 5.02 µM (inactive) and 3.49 µM (inactive)
- GI50 (HOP-92): 48.6 µM (inactive) and 32 µM (inactive)
- GI50 (HCT-116): 4.48 µM (inactive) and 6.7 µM (inactive)
- GI50 (CAKI-1): 26.7 µM (inactive) and 15.6 µM (inactive)
- GI50 (BT-549): 8.97 µM (inactive) and 15.2 µM (inactive)
- GI50 (HT-29): 6.37 µM (inactive) and 4.84 µM (inactive)
- GI50 (SR): 14.7 µM (inactive) and 12.6 µM (inactive)
- GI50 (Hs-578T): > 100 µM (inactive)
- GI50 (CCRF-CEM): 5.18 µM (inactive) and 3.47 µM (inactive)
- GI50 (T47D): 4.55 µM (inactive) and 5.27 µM (inactive)

SMILES: O=S(=O)([C-]([I+]c1ccccc1)S(=O)(=O)C(F)(F)C(F)(F)C(F)(F)C(F)(F)F)C(F)(F)C(F)(F)C(F)(F)C(F)(F)F
- GI50 (ACHN): 6.49 µM (inactive)
- GI50 (RPMI-8226): 3.54 µM (inactive)
- GI50 (SF-268): 18.5 µM (inactive)
- GI50 (786-0): 14.9 µM (inactive)
- GI50 (NCI-H460): 17.7 µM (inactive)
- GI50 (SK-MEL-28): 15.8 µM (inactive)
- GI50 (HCT-15): 15.2 µM
- GI50 (NCI-H522): 2.49 µM (inactive)
- GI50 (NCI/ADR-RES): 24.3 µM (inactive)
- GI50 (OVCAR-3): 15.9 µM (inactive)
- GI50 (U-251): 14.4 µM (inactive)
- GI50 (SW-620): 5.69 µM (inactive)
- GI50 (HCC 2998): 20 µM (inactive)
- GI50 (SNB-75): 14.8 µM (inactive)
- GI50 (A498): 14.8 µM (inactive)
- GI50 (MCF7): 6.05 µM (inactive)
- GI50 (MOLT-4): 3.51 µM (inactive)
- GI50 (UACC-62): 17.9 µM (inactive)
- GI50 (OVCAR-5): 17.2 µM (inactive)
- GI50 (IGROV-1): 19.1 µM (inactive)
- GI50 (LOX IMVI): 14.4 µM (inactive)
- GI50 (A549): 18.7 µM (inactive)
- GI50 (HL-60): 4.67 µM (inactive)
- GI50 (HOP-92): 8.77 µM (inactive)
- GI50 (OVCAR-8): > 10 µM (inactive)
- GI50 (MDA-MB-231): 24.1 µM (inactive)
- GI50 (UACC-257): 17.6 µM (inactive)
- GI50 (UO-31): 13.2 µM (inactive)
- GI50 (SK-MEL-5): 14.4 µM (inactive)
- GI50 (CAKI-1): 13.2 µM (inactive)
- GI50 (MDA-MB-435): 19.3 µM (inactive)
- GI50 (BT-549): 15.2 µM (inactive)
- GI50 (HT-29): 17.4 µM (inactive)
- GI50 (Malme-3M): 11 µM (inactive)
- GI50 (SR): 4.14 µM (inactive)
- GI50 (PC-3): 17.2 µM (inactive)
- GI50 (OVCAR-4): 2.95 µM (inactive)
- GI50 (M14): 13.6 µM (inactive)
- GI50 (SNB-19): 15.2 µM (inactive)
- GI50 (EKVX): 13.5 µM (inactive)
- GI50 (K562): 4.11 µM (inactive)
- GI50 (HOP-62): 16.8 µM (inactive)
- GI50 (NCI-H226): 3.97 µM (inactive)
- GI50 (Hs-578T): 20.1 µM (inactive)
- GI50 (KM12): 21.5 µM (inactive)
- GI50 (COLO 205): 6.64 µM (inactive)
- GI50 (CCRF-CEM): 4.06 µM (inactive)
- GI50 (SF-295): 16.6 µM (inactive)
- GI50 (TK-10): 16.3 µM (inactive)
- GI50 (SF-539): 15.5 µM (inactive)
- GI50 (NCI-H23): 19.1 µM (inactive)
- GI50 (SK-OV-3): 16.7 µM (inactive)
- GI50 (T47D): 11.1 µM (inactive)
